Reference: ChEMBL document CHEMBL1201862, “PubChem BioAssay data set” (2004)
The source made the active and inactive calls.

Experiments:
[1] = target: T1, Short transient receptor potential channel 4 (Mus musculus, UniProt Q9QUQ5); assay: block of DAMGO-driven TRPC4 calcium entry – cell-based, HEK293 TRPC4/mu-opioid, Fluo-4 calcium, dose response (AID 434942); assay type: functional;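 further: potency of inhibitors blocking the TRPC4 calcium response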
T1 sequence (Q9QUQ5 whole entry): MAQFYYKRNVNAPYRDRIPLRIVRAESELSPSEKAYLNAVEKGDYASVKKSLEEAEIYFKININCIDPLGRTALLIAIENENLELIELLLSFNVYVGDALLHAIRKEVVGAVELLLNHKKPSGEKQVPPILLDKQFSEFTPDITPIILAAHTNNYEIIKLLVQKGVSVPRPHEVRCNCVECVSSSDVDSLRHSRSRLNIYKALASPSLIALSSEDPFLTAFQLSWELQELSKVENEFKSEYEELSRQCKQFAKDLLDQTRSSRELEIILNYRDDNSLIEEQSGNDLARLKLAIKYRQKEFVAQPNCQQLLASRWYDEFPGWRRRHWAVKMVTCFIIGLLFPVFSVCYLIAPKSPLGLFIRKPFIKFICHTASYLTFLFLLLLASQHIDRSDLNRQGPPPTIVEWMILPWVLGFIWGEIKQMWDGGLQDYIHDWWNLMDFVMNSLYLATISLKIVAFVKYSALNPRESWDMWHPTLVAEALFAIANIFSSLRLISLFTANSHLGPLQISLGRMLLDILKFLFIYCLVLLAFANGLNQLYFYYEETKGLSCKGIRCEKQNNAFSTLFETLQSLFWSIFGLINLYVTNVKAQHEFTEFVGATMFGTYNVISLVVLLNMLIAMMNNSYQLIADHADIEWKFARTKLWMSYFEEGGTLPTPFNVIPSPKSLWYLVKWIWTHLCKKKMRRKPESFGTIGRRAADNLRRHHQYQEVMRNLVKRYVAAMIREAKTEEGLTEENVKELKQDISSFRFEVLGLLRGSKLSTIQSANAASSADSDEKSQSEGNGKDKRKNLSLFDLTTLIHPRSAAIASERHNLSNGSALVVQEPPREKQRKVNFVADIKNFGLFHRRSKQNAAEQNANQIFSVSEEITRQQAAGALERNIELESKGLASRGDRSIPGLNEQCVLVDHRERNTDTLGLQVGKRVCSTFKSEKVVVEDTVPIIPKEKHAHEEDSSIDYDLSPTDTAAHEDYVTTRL

[2] = target: T2, Calpain-2 catalytic subunit (Sus scrofa, UniProt P43367); assay: m-calpain protease blockers, concentration series – biochemical, fluorogenic peptide substrate, dose response (AID 1420); assay type: functional
T2 sequence (P43367 whole entry): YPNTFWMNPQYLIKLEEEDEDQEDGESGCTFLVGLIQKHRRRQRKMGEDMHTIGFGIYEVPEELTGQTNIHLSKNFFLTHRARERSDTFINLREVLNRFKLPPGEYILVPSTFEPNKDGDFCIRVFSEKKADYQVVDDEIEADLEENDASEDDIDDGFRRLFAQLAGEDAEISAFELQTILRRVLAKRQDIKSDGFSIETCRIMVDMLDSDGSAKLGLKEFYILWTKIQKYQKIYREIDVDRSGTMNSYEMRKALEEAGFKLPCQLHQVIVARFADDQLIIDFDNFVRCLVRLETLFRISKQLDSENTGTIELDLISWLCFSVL

[3] = target: T3, Lysosomal acid glucosylceramidase (Homo sapiens, UniProt P04062); assay: Dose response cell-based high throughput screening assay to identify enhancers of beta-glucosidase activity. [Related pubchem assays: 784 ]; assay type: functional
T3 sequence (P04062 whole entry): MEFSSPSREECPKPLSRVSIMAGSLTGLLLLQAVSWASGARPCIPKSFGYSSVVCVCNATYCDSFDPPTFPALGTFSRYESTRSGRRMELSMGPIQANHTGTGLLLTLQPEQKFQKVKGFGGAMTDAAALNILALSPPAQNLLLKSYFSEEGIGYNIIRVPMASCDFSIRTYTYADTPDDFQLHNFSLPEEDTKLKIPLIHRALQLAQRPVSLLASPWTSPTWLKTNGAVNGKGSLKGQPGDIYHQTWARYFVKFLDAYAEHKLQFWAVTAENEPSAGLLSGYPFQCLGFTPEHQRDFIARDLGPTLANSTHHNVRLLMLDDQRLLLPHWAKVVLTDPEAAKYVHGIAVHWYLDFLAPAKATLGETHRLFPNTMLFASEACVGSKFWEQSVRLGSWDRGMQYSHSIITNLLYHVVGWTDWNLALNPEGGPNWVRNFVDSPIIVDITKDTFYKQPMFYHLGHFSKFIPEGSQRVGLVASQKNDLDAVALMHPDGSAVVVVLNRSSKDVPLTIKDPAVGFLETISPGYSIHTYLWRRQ

[4] = target: T4, Ubiquitin-conjugating enzyme E2 N (Homo sapiens, UniProt P61088); assay type: functional;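 further: Dose-response confirmation in a TR-FRET assay detecting UBC13-driven polyubiquitin chain formation, inhibition measured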
T4 sequence (P61088 whole entry): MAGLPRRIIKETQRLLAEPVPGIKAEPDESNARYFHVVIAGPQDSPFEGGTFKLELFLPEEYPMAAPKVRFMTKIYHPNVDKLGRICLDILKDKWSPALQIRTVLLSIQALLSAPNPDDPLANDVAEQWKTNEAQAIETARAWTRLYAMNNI

[5] = target: T5, DNA repair protein RAD52 homolog (Homo sapiens, UniProt P43351); assay type: functional, biochemical
T5 sequence (P43351 whole entry): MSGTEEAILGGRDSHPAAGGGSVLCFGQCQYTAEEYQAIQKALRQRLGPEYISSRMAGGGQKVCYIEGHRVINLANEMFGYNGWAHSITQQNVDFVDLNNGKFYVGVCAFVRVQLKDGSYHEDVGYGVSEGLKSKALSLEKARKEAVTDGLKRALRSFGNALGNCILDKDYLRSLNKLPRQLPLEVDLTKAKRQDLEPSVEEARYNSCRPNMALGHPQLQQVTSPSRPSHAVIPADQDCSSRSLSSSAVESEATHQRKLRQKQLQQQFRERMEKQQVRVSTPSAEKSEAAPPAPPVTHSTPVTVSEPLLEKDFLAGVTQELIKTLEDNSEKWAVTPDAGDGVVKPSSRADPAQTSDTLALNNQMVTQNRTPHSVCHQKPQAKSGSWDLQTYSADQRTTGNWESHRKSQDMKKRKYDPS

Nonstructural protein 1 = Nonstructural protein 1 (Influenza A virus, UniProt Q194T2); assay type: functional, Influenza A virus (A/California/07/2009(H1N1))
[6] = target: Peroxisome proliferator-activated receptor gamma/Nuclear receptor coactivator 2 (Homo sapiens, UniProt P37231); assay: (§1) TR-FRET dose response biochemical High Throughput Screening assay for agonists of the steroid receptor coactivator 2 (SRC-2) recruitment by the peroxisome proliferator-activated receptor gamma (PPAR gamma): non-selective agonists. [Related pubchem assays: 1297, 1032 ]; assay type: functional
[7] = target: Peroxisome proliferator-activated receptor gamma/Nuclear receptor coactivator 3 (Homo sapiens, UniProt P37231); assay: as §1, with “3 (SRC-3)” for “2 (SRC-2)”, “1301 (Confirmation screen.), 1048 (Primary screen.)]” for “1297, 1032 ]”; assay type: functional
[8] = target: Peroxisome proliferator-activated receptor gamma/Nuclear receptor coactivator 1 (Homo sapiens, UniProt P37231); assay: as §1, with “1 (SRC-1)” for “2 (SRC-2)”, “assays (depositor defined):AID1300, AID1808, AID504735, AID631]” for “assays: 1297, 1032 ]”; assay type: protein assay
Cytochrome P450 3A4 = Cytochrome P450 3A4 (Homo sapiens, UniProt P08684); conditions: Potency;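 further: confirmatory qHTS run detecting inhibitors and substrates of CYP3A4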
[9] = HEK-293T viability loss after treatment – luminescence, T-cell screen hits, cytotoxicity control for TCR NF-kB inhibitor project, dose response (AID 489026); assay type: functional, cell-based;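 further: cells exposed to compound about 14 hours before the viability readout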
Cytochrome P450 2C19 = Cytochrome P450 2C19 (Homo sapiens, UniProt P33261); assay: Cytochrome panel assay with activity outcomes. Panel member name: p450-cyp2c19 Compounds with AC50 equal or less than 10 uM are considered active; assay type: functional
SUMO-activating enzyme = SUMO-activating enzyme (Homo sapiens, UniProt Q9UBT2); assay: blockers of SAE1/SAE2–UBC9 SUMO transfer – biochemical, HTRF, uHTS, primary screen (AID 2006); assay type: protein-complex assay
Trypsin = Trypsin (Sus scrofa, UniProt P00761); assay: trypsin protease activity blockade – biochemical, quenched peptide fluorescence, cherry-pick, selectivity assay for Rce1 protease inhibitor project, dose response (AID 488789)
[10] = target: T6, Heat shock factor protein 1 (Mus musculus, UniProt P38532); assay: decrease of HSF1-responsive luciferase luminescence – cell-based, NIH3T3, dose retest, confirmation (AID 2382); assay type: functional;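 further: NIH3T3 fibroblasts with HSF1-driven luciferase reporter stressed by proteasome inhibitor MG132; luminescence from HSF1-driven luciferase expression after 8 hours of MG132 stress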
T6 sequence (P38532 whole entry): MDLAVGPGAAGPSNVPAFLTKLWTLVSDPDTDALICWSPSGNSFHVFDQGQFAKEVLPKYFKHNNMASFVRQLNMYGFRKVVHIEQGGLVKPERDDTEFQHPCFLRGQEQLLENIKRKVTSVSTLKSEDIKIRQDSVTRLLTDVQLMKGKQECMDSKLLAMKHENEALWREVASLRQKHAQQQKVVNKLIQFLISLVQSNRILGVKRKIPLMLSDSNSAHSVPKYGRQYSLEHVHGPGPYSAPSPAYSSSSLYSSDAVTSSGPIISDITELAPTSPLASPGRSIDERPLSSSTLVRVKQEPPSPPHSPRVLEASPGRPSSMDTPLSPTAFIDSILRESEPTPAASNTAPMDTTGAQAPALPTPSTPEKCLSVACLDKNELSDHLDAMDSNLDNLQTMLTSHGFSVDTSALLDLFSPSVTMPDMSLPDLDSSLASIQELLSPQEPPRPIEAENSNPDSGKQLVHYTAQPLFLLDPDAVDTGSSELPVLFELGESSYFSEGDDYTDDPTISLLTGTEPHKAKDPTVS

Chain of Cytochrome P450 3A4 (P08684 whole entry): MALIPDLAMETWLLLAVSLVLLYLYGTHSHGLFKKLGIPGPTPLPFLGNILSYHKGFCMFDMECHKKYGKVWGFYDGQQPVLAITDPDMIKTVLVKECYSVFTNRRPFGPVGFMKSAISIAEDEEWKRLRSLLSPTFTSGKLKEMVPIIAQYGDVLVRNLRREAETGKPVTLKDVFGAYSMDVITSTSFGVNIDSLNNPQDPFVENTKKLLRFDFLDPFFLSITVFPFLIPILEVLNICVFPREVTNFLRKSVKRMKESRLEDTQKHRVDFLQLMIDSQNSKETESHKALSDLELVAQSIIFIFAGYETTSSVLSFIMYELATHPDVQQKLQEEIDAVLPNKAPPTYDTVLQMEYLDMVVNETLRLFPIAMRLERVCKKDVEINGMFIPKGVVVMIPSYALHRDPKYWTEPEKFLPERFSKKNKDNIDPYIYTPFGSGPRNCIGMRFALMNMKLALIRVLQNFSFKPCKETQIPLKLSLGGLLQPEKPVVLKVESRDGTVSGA
Chain of Peroxisome proliferator-activated receptor gamma/Nuclear receptor coactivator 2 (P37231 whole entry): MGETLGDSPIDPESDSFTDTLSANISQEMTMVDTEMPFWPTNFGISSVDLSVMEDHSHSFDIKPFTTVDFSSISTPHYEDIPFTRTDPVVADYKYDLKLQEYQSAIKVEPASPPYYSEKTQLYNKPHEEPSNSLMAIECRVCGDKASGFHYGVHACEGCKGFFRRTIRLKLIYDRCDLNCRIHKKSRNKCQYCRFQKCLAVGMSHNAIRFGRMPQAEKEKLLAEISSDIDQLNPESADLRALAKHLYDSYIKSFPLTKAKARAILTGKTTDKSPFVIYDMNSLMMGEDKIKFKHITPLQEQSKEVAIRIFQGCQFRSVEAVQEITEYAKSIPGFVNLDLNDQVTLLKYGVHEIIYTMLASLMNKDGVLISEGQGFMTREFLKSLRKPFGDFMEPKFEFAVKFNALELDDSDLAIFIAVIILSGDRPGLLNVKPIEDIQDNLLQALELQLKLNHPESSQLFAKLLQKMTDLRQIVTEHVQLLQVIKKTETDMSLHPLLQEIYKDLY
Chain of Peroxisome proliferator-activated receptor gamma/Nuclear receptor coactivator 2 (Q15596 whole entry, further chain): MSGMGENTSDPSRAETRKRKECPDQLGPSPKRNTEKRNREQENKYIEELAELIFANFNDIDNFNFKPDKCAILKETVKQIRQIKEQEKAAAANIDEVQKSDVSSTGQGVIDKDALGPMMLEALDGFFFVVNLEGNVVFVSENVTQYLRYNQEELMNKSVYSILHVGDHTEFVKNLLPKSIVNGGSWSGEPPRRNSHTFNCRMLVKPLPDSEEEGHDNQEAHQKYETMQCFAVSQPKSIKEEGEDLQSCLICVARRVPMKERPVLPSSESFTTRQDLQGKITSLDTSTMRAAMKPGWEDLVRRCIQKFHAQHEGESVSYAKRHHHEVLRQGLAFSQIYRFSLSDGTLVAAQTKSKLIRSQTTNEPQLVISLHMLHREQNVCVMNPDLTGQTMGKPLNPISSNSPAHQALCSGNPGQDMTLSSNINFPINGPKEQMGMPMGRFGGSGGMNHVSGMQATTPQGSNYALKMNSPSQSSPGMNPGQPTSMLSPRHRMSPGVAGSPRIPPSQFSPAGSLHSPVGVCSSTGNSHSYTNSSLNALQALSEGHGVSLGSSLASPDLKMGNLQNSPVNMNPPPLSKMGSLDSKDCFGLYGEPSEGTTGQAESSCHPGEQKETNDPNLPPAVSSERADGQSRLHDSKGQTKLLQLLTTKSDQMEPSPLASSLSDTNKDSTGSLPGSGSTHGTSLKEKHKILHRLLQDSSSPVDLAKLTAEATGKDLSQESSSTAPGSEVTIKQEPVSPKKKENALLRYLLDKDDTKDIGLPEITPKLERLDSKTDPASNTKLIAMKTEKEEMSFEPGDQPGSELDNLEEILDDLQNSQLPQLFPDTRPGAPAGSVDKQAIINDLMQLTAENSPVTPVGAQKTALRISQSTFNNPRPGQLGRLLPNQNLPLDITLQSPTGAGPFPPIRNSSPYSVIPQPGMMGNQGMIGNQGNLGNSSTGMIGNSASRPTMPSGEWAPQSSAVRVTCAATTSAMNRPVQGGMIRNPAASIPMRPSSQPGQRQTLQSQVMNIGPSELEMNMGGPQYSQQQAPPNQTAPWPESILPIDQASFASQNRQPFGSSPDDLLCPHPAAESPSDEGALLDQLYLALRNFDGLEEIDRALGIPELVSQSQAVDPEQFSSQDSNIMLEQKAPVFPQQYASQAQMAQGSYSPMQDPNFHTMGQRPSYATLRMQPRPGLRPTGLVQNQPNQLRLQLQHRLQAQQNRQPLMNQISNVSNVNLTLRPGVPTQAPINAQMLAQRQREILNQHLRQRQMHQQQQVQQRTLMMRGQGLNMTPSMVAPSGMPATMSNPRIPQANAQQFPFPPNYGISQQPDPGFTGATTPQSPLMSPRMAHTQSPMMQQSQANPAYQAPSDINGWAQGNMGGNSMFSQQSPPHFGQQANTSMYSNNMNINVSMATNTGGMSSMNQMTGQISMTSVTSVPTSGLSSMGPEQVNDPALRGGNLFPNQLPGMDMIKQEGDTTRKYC
Chain of Peroxisome proliferator-activated receptor gamma/Nuclear receptor coactivator 1 (P37231 whole entry): as the sequence (P37231 whole entry) above
Chain of Peroxisome proliferator-activated receptor gamma/Nuclear receptor coactivator 1 (Q15788 whole entry, further chain): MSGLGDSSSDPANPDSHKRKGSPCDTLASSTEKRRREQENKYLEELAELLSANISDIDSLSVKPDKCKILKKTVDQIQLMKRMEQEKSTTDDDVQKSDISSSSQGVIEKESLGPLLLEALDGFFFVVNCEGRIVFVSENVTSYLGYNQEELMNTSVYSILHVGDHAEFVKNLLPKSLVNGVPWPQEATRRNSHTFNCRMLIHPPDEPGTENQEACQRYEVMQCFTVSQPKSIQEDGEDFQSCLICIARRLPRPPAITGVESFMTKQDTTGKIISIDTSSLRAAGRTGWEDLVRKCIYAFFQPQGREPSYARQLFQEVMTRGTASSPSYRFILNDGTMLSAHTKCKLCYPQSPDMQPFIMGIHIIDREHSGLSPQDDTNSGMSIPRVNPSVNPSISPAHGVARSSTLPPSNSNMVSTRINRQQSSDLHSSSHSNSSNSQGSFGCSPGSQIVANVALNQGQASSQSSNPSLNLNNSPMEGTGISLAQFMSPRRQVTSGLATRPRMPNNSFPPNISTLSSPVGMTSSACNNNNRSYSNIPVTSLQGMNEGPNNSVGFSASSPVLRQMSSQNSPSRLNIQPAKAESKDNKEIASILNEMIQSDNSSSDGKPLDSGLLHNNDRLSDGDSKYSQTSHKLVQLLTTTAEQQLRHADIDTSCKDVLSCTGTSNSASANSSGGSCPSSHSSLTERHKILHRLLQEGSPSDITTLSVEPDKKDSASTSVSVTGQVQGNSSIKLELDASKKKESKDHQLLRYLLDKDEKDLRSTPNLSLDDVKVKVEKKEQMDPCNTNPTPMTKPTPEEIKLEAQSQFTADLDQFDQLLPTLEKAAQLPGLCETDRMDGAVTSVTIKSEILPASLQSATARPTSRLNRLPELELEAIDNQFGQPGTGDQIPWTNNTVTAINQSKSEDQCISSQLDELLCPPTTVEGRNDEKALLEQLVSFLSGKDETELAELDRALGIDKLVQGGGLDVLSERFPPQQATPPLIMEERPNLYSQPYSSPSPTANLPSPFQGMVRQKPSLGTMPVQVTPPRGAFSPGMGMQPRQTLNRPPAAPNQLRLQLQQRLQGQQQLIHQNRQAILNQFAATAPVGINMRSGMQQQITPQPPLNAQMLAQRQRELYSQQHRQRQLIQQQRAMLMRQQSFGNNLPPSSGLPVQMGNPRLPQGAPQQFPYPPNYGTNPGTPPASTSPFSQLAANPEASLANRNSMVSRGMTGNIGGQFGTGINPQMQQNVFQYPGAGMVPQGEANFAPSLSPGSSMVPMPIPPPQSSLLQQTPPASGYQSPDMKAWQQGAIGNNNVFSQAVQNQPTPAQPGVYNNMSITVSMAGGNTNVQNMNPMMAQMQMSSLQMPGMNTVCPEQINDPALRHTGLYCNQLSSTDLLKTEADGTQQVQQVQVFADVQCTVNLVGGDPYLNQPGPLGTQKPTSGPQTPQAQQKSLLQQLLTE
Chain of Nonstructural protein 1 (Q194T2 whole entry): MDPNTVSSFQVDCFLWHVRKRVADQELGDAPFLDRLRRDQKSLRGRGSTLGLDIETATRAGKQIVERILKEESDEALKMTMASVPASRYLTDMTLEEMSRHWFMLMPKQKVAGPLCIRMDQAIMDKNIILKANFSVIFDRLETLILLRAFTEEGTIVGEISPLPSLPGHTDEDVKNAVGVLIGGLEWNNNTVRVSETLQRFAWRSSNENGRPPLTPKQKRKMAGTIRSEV
Chain of Trypsin (P00761 whole entry): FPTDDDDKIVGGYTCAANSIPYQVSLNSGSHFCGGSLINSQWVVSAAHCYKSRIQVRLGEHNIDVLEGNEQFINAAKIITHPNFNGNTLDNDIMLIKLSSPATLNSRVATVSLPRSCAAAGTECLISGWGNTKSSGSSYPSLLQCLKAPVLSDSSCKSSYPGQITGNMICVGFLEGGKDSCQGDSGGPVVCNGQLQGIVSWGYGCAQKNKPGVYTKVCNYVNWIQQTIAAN

For `Cc1n[nH]c(C)c1CCCCOc1ccccc1`, the EC50 [1] was 3.76 µM (active).

For `Nc1nonc1-c1noc(CCCCCN2C(=O)c3ccccc3C2=O)n1`, the IC50 [2] was 2.74 µM (not active) and the EC50 [3] was > 10 µM (not active).

With `CN1CCN(C2CCN(Cc3ccc(O)c4ncccc34)CC2)CC1` the IC50 [4] was > 20 µM (inactive), the AC50 [5] was 1.11 µM (active) and the IC50 (Nonstructural protein 1) was 5.84 µM (active).

For `CCOCc1cn(CC(=O)c2ccc(Cl)cc2)c(C)nc1=N`, the EC50 [1] was 2.99 µM (active).

For `O=C(Oc1ccccc1)Oc1ccc2c(c1)oc(=O)c1ccccc12`, the EC50 [6] was 64.1 µM (not active), the EC50 [7] was > 79.4 µM (not active) and the EC50 [8] was > 79.4 µM (inactive).

In the case of `COCCCn1c(SCC(=O)OC2CCCCC2)nnc1-c1ccco1`, the EC50 [3] is reported as > 50 µM (not active).

In the case of `Cn1c(NCc2ccccc2O)nc2ccccc21`, the EC50 [1] is reported as 7.5 µM (active).

With `NS(=O)(=O)c1ccc(-c2ccc(/C=C3\C(=O)Nc4cc(Cl)ccc43)o2)cc1` the EC50 [6] was 9.96 µM (active), the EC50 [7] was > 26.5 µM (not active) and the EC50 [8] was 19.7 µM (inactive).

In the case of `FC(F)(F)c1ccc(C2[C@H]3CN(Cc4ccc(-c5ccccc5)cc4)[C@H](c4ccccc4)C34CC2(c2ccccc2)C4)cc1` (some centres undefined), the AC50 (Cytochrome P450 3A4) is reported as 25.1 µM (inconclusive).

In the case of `CCOCCCNC(=O)c1cc2c(=O)n3cccc(C)c3nc2n1C`, the IC50 [9] is reported as > 80 µM (inactive).

For `Cc1nonc1NC(=O)OCCN1CCOC1=O`, the EC50 [3] was > 50 µM (not active) and the AC50 (Cytochrome P450 2C19) was “inconclusive”.

With `OC(COCC1CC=CCC1)Cn1cnc2ccccc21` (centres undefined) the EC50 [3] was > 50 µM (not active).

With `Cc1ccc2[nH]c3c(c2c1)CN(C(=O)CN1CCCc2ccccc21)CC3` the IC50 (SUMO-activating enzyme) was 69.6 µM (active).

In the case of `Cc1ccc(-c2csc(N3CCN(c4cc5c(cc4Cl)nc(C)n5CCN4CCCCC4)CC3)n2)cc1`, the IC50 [4] is reported as > 20 µM (inactive).

For `O=C1C(Cc2c[nH]c3ccccc23)NC(=S)N1Cc1ccccc1` (centres undefined), the AC50 (Trypsin) was 14.3 µM (active).

For `COC(=O)N1C2(C=CC1(C)C(=O)NCc1ccc(N(C)C)cc1)CCCCC2` (centres undefined), the AC50 (Cytochrome P450 3A4) was 0.501 µM (inconclusive).

In the case of `O=C(NCCCN1CCCCC1)C1CCN(c2ncnc3c2nc2n3CCCCC2)CC1`, the IC50 [4] is reported as > 20 µM (inactive).

With `COC(=O)C1=C(C)N(Cc2ccccc2)[C@]23O[C@](C(=O)OC)(C(=O)N2C1c1ccccc1)C(C(=O)OC)=C3C(=O)OC` (some centres undefined) the AC50 (Cytochrome P450 3A4) was 3.16 µM (inconclusive).

In the case of `Nc1c2c(nc3ccccc13)N(c1ccccc1)CC2`, the EC50 [10] is reported as > 195 µM (not active) and the EC50 [1] is reported as 1.88 µM (active).

For `CCc1ccc(-c2cc(C(=O)N/N=C/c3ccccn3)[nH]n2)cc1`, the IC50 [4] was > 20 µM (inactive).
